Experimental data from patent US10144715B2, “Piperazine derivatives as liver X receptor modulators” (priority 2014, dated 2018).
Like-named read-outs stand apart in the source and are kept apart here.

Assays:
[1] = biological target: LXR α LBD protein (Homo sapiens (Human), UniProt Q13133); assay: LXR α radioligand binding assay (SPA, competition with [3H]TO901317); conditions: read-out: LXRα Binding Ki
[2] = biological target: LXR β LBD protein (Homo sapiens (Human), UniProt P55055); assay: biochemical; type: binding; conditions: read-out: LXRβ Binding Ki
Chain of LXR β LBD protein (P55055 222-460 limits assumed): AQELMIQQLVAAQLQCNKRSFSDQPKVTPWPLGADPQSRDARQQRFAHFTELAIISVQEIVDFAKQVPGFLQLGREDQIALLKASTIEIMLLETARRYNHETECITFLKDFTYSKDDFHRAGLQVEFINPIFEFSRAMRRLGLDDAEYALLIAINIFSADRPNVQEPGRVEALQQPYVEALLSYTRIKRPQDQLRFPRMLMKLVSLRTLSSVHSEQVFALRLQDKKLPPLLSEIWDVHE

[3] = biological target: Gal4 DNA binding domain fused to the LBD of LXRα in HEK293 cells (Homo sapiens (Human), UniProt Q13133); assay: LXR luciferase transcriptional reporter gene assay, agonist mode, LXRα; type: cell-based; conditions: for EC50: read-out: Cell LXRα EC50
Chain of Gal4 DNA binding domain fused to the LBD of LXRα in HEK293 cells (Q13133 209-447): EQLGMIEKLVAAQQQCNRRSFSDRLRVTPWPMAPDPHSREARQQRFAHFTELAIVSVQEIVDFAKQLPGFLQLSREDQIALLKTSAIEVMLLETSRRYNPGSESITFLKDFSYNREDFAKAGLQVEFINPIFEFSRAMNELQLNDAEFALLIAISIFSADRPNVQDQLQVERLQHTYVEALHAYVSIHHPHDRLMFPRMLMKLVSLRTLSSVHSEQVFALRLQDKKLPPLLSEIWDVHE

[4] = biological target: Gal4 DNA binding domain fused to the LBD of LXRβ in HEK293 cells (Homo sapiens (Human), UniProt P55055); assay: cell-based
Chain of Gal4 DNA binding domain fused to the LBD of LXRβ in HEK293 cells (P55055 222-460 limits assumed): as the sequence (P55055 222-460 limits assumed) above

Chain of LXR α LBD protein (Q13133 209-447): as the sequence (Q13133 209-447) above

| Compound | Ki [1] | Ki [2] | Cell LXRα efficacy [3] | EC50 ([3]; agonist mode) | EC50 [4] | EC50 [3] | Cell LXRβ efficacy [4] | Cell LXRβ efficacy ([4]; agonist mode) |
| --- | --- | --- | --- | --- | --- | --- | --- | --- |
| CC(C)[C@@H]1CN(c2cc(S(C)(=O)=O)c(C(N)=O)cc2Cl)CCN1c1nccc(C(F)(F)F)n1 [4-4, (R)-5-chloro-4-(3-isopropyl-4-(4-(trifluoromethyl)pyrimidin-2-yl)piperazin-1-yl)-2-(methylsulfonyl)benzamide] | > 3330 nM | 1630 nM | 2852 (7) % | 2850 nM | 1350 nM | – | – | – |
| CC(C)[C@@H]1CN(c2ccc(F)c(S(C)(=O)=O)c2)CCN1c1nccc(C(N)=O)n1 [4-5, (R)-2-(4-(4-fluoro-3-(methylsulfonyl)phenyl)-2-isopropylpiperazin-1-yl)pyrimidine-4-carboxamide] | 3250 nM | 495 nM | 15117 (37) % | – | 1720 nM | 15100 nM | 1723 (24) % | – |
| CC(C)[C@@H]1CN(c2ccc(F)c(S(C)(=O)=O)c2)CCN1c1ncc(C(F)(F)F)c(C(N)=O)n1 [4-7, (R)-2-(4-(4-fluoro-3-(methylsulfonyl)phenyl)-2-isopropylpiperazin-1-yl)-5-(trifluoromethyl)pyrimidine-4-carboxamide] | 1680 nM | 173 nM | 2952 (73) % | – | 477 nM | 2950 nM | – | 477 (61) % |
| CC(C)[C@@H]1CN(c2ccc(F)c(S(C)(=O)=O)c2)CCN1c1nccc(C#N)n1 [7-7, (R)-2-(4-(4-fluoro-3-(methylsulfonyl)phenyl)-2-isopropylpiperazin-1-yl)pyrimidine-4-carbonitrile] | 421 nM | 47 nM | 1467 (69) % | 1470 nM | 404 nM | – | – | 404 (60) % |
| Cc1cc(C#N)nc(N2CCN(c3ccc(F)c(S(C)(=O)=O)c3)C[C@H]2C(C)C)n1 [7-8, (R)-2-(4-(4-fluoro-3-(methylsulfonyl)phenyl)-2-isopropylpiperazin-1-yl)-6-methylpyrimidine-4-carbonitrile] | > 3330 nM | 1010 nM | 17317 (26) % | 17300 nM | 1520 nM | – | – | 1521 (21) % |
| CC(C)[C@@H]1CN(c2cccc(S(C)(=O)=O)c2)CCN1c1ncc(OC(F)F)cn1 [7-11, (R)-5-(difluoromethoxy)-2-(2-isopropyl-4-(3-(methylsulfonyl)phenyl)piperazin-1-yl)pyrimidine] | 898 nM | 78 nM | 3658 (71) % | – | 1200 nM | 3660 nM | – | 1198 (48) % |
| COC(=O)c1cnc(N2CCN(c3ccc(F)c(S(C)(=O)=O)c3)C[C@H]2C(C)C)nc1 [7-14, methyl (R)-2-(4-(4-fluoro-3-(methylsulfonyl)phenyl)-2-isopropylpiperazin-1-yl)pyrimidine-5-carboxylate] | 2870 nM | 285 nM | 7124 (30) % | – | 379 nM | 7120 nM | – | 379 (17) % |
| COC(=O)c1ccnc(N2CCN(c3ccc(F)c(S(C)(=O)=O)c3)C[C@H]2C(C)C)n1 [7-15, methyl (R)-2-(4-(4-fluoro-3-(methylsulfonyl)phenyl)-2-isopropylpiperazin-1-yl)pyrimidine-4-carboxylate] | 213 nM | 20 nM | 1102 (85) % | – | 213 nM | 1100 nM | 213 (65) % | – |
| Cc1cc(C(F)(F)F)nc(N2CCN(c3ccc(F)c(S(C)(=O)=O)c3)C[C@H]2C(C)C)n1 [7-18, (R)-2-(4-(4-fluoro-3-(methylsulfonyl)phenyl)-2-isopropylpiperazin-1-yl)-4-methyl-6-(trifluoromethyl)pyrimidine] | 105 nM | 9 nM | 1110 (61) % | – | 161 nM | 1110 nM | 161 (44) % | – |
| CCOC(=O)c1cnc(N2CCN(c3ccc(F)c(S(C)(=O)=O)c3)C[C@H]2C(C)C)nc1C [7-19, ethyl (R)-2-(4-(4-fluoro-3-(methylsulfonyl)phenyl)-2-isopropylpiperazin-1-yl)-4-methylpyrimidine-5-carboxylate] | 162 nM | 17 nM | 909 (40) % | 909 nM | 176 nM | – | 176 (32) % | – |
| Cc1nc(N2CCN(c3ccc(F)c(S(C)(=O)=O)c3)C[C@H]2C(C)C)ncc1Br [7-20, (R)-5-bromo-2-(4-(4-fluoro-3-(methylsulfonyl)phenyl)-2-isopropylpiperazin-1-yl)-4-methylpyrimidine] | 101 nM | 8 nM | 787 (80) % | 787 nM | 142 nM | – | 142 (57) % | – |
| CC(C)[C@@H]1CN(c2ccc(F)c(S(C)(=O)=O)c2)CCN1c1cncc(C(F)(F)F)n1 [7-45, (R)-2-(4-(4-fluoro-3-(methylsulfonyl)phenyl)-2-isopropylpiperazin-1-yl)-6-(trifluoromethyl)pyrazine] | 115 nM | 12 nM | 377 (85) % | 377 nM | 136 nM | – | 136 (71) % | – |
| CC(C)[C@@H]1CN(c2ccc(F)c(S(C)(=O)=O)c2)CCN1c1nc2ccccc2o1 [7-52, (R)-2-(4-(4-fluoro-3-(methylsulfonyl)phenyl)-2-isopropylpiperazin-1-yl)benzo[d]oxazole] | 365 nM | 41 nM | 1018 (76) % | – | 192 nM | 1020 nM | 192 (48) % | – |
| CC(C)[C@@H]1CN(c2ccc(F)c(S(C)(=O)=O)c2)CCN1c1nc2c(F)cccc2s1 [7-54, (R)-4-fluoro-2-(4-(4-fluoro-3-(methylsulfonyl)phenyl)-2-isopropylpiperazin-1-yl)benzo[d]thiazole] | 68 nM | 9 nM | 371 (95) % | – | 77 nM | 371 nM | 77 (80) % | – |
| CC(C)[C@@H]1CN(c2ccc(F)c(S(C)(=O)=O)c2)CCN1c1nc2ccc(F)cc2s1 [7-55, (R)-6-fluoro-2-(4-(4-fluoro-3-(methylsulfonyl)phenyl)-2-isopropylpiperazin-1-yl)benzo[d]thiazole] | 120 nM | 14 nM | 439 (68) % | – | 106 nM | 439 nM | 106 (55) % | – |
| CC(C)[C@@H]1CN(c2ccc(F)c(S(C)(=O)=O)c2)CCN1c1nc2ccccc2s1 [7-56, (R)-2-(4-(4-fluoro-3-(methylsulfonyl)phenyl)-2-isopropylpiperazin-1-yl)benzo[d]thiazole] | 146 nM | 15 nM | 770 (70) % | – | 99 nM | 770 nM | 99 (51) % | – |
| CC(C)[C@@H]1CN(c2ccc(F)c(S(C)(=O)=O)c2)CCN1c1nc2cnccc2s1 [7-58, (R)-2-(4-(4-fluoro-3-(methylsulfonyl)phenyl)-2-isopropylpiperazin-1-yl)thiazolo[4,5-c]pyridine] | 2960 nM | 509 nM | 6486 (31) % | – | 1150 nM | 6490 nM | 1154 (31) % | – |
